{"source": "patent US20170045529A1", "about": "“METHODS OF MEASURING ANTIGEN-SPECIFIC T CELLS” (ImmusanT, Inc., priority 2014, published 2017)", "type_in_all_cases": "cell-based, human", "key": {"whole blood [1]": {"test_system": "whole blood", "test": "Whole blood IL-2 release to peptide pools and individual peptides, MAGPIX multiplex bead assay (Example 3)", "details": "10 uM"}, "whole blood [2]": {"test_system": "whole blood", "test": "Whole blood IFN-γ release to peptide pools and individual peptides, MAGPIX multiplex bead assay (Example 3)", "details": "10 uM"}, "whole blood [3]": {"test_system": "whole blood", "test": "Whole blood IP-10 release to peptide pools and individual peptides, MAGPIX multiplex bead assay (Example 3)", "details": "Table 10C, 10 uM"}, "[4]": {"details": "Subject 1 (HLA-DQ 2.5, 8), day 0 of oral challenge"}, "[5]": {"details": "Subject 1 (HLA-DQ 2.5, 8), day 6 of oral challenge"}, "[6]": {"details": "Subject 2 (HLA-DQ 2.5, 8), day 0 of oral challenge"}, "[7]": {"details": "Subject 2 (HLA-DQ 2.5, 8), day 6 of oral challenge"}, "[8]": {"details": "Subject 6 (HLA-DQ 2.5), day 0 of oral challenge"}, "[9]": {"details": "Subject 6 (HLA-DQ 2.5), day 6 of oral challenge"}, "[10]": {"details": "Subject 7 (HLA-DQ 2.5, 8), day 0 of oral challenge"}, "[11]": {"details": "Subject 7 (HLA-DQ 2.5, 8), day 6 of oral challenge"}, "[12]": {"details": "Subject 1, day 0 since commencing oral challenge"}, "[13]": {"details": "Subject 1, day 6 since commencing oral challenge"}, "[14]": {"details": "Subject 2, day 0 since commencing oral challenge"}, "[15]": {"details": "Subject 2, day 6 since commencing oral challenge"}, "[16]": {"details": "Subject 6, day 0 since commencing oral challenge"}, "[17]": {"details": "Subject 6, day 6 since commencing oral challenge"}, "[18]": {"details": "Subject 7, day 0 since commencing oral challenge"}, "[19]": {"details": "Subject 7, day 6 since commencing oral challenge"}}, "note": "Non-standard residues stand in square brackets, D forms with d. pGlu = O=C1CC[C@@H](C(=O)O)N1", "data": [{"substance": "(pE)PEQPIPEQPQPYPQQ-NH2 ([pGlu]PEQPIPEQPQPYPQQ-NH2; SMILES CC[C@H](C)[C@H](NC(=O)[C@@H]1CCCN1C(=O)[C@H](CCC(N)=O)NC(=O)[C@H](CCC(=O)O)NC(=O)[C@@H]1CCCN1C(=O)[C@@H]1CCC(=O)N1)C(=O)N1CCC[C@H]1C(=O)N[C@@H](CCC(=O)O)C(=O)N[C@@H](CCC(N)=O)C(=O)N1CCC[C@H]1C(=O)N[C@@H](CCC(N)=O)C(=O)N1CCC[C@H]1C(=O)N[C@@H](Cc1ccc(O)cc1)C(=O)N1CCC[C@H]1C(=O)N[C@@H](CCC(N)=O)C(=O)N[C@@H](CCC(N)=O)C(N)=O)", "values": [{"measurement": "Whole blood IL-2 release, Concentration", "setting": "whole blood [1]; [4]", "result": 3.2, "unit": "pg/mL"}, {"measurement": "Whole blood IL-2 release, Fold-change over medium only", "setting": "whole blood [1]; [4]", "result": 1.00}, {"measurement": "Whole blood IL-2 release, Concentration", "setting": "whole blood [1]; [5]", "result": 3.2, "unit": "pg/mL"}, {"measurement": "Whole blood IL-2 release, Fold-change over medium only", "setting": "whole blood [1]; [5]", "result": 1.00}, {"measurement": "Whole blood IL-2 release, Concentration", "setting": "whole blood [1]; [6]", "result": 3.2, "unit": "pg/mL"}, {"measurement": "Whole blood IL-2 release, Fold-change over medium only", "setting": "whole blood [1]; [6]", "result": 1.00}, {"measurement": "Whole blood IL-2 release, Concentration", "setting": "whole blood [1]; [7]", "result": 22.4, "unit": "pg/mL"}, {"measurement": "Whole blood IL-2 release, Fold-change over medium only", "setting": "whole blood [1]; [7]", "result": 7.00}, {"measurement": "Whole blood IL-2 release, Concentration", "setting": "whole blood [1]; [8]", "result": 23.3, "unit": "pg/mL"}, {"measurement": "Whole blood IL-2 release, Fold-change over medium only", "setting": "whole blood [1]; [8]", "result": 4.71}, {"measurement": "Whole blood IL-2 release, Concentration", "setting": "whole blood [1]; [9]", "result": 134.3, "unit": "pg/mL"}, {"measurement": "Whole blood IL-2 release, Fold-change over medium only", "setting": "whole blood [1]; [9]", "result": 31.67}, {"measurement": "Whole blood IL-2 release, Concentration", "setting": "whole blood [1]; [10]", "result": 106.1, "unit": "pg/mL"}, {"measurement": "Whole blood IL-2 release, Fold-change over medium only", "setting": "whole blood [1]; [10]", "result": 1.69}, {"measurement": "Whole blood IL-2 release, Concentration", "setting": "whole blood [1]; [11]", "result": 27.8, "unit": "pg/mL"}, {"measurement": "Whole blood IL-2 release, Fold-change over medium only", "setting": "whole blood [1]; [11]", "result": 0.66}, {"measurement": "Whole blood IFNg release, Concentration", "setting": "whole blood [2]; [4]", "result": 42, "unit": "pg/mL"}, {"measurement": "Whole blood IFNg release, Fold-change over medium only", "setting": "whole blood [2]; [4]", "result": 0.76}, {"measurement": "Whole blood IFNg release, Concentration", "setting": "whole blood [2]; [5]", "result": 72, "unit": "pg/mL"}, {"measurement": "Whole blood IFNg release, Fold-change over medium only", "setting": "whole blood [2]; [5]", "result": 1.09}, {"measurement": "Whole blood IFNg release, Concentration", "setting": "whole blood [2]; [6]", "result": 3.3, "unit": "pg/mL"}, {"measurement": "Whole blood IFNg release, Fold-change over medium only", "setting": "whole blood [2]; [6]", "result": 0.85}, {"measurement": "Whole blood IFNg release, Concentration", "setting": "whole blood [2]; [7]", "result": 8.6, "unit": "pg/mL"}, {"measurement": "Whole blood IFNg release, Fold-change over medium only", "setting": "whole blood [2]; [7]", "result": 1.77}, {"measurement": "Whole blood IFNg release, Concentration", "setting": "whole blood [2]; [8]", "result": 96, "unit": "pg/mL"}, {"measurement": "Whole blood IFNg release, Fold-change over medium only", "setting": "whole blood [2]; [8]", "result": 0.99}, {"measurement": "Whole blood IFNg release, Concentration", "setting": "whole blood [2]; [9]", "result": 278, "unit": "pg/mL"}, {"measurement": "Whole blood IFNg release, Fold-change over medium only", "setting": "whole blood [2]; [9]", "result": 2.84}, {"measurement": "Whole blood IFNg release, Concentration", "setting": "whole blood [2]; [10]", "result": 170, "unit": "pg/mL"}, {"measurement": "Whole blood IFNg release, Fold-change over medium only", "setting": "whole blood [2]; [10]", "result": 0.71}, {"measurement": "Whole blood IFNg release, Concentration", "setting": "whole blood [2]; [11]", "result": 102, "unit": "pg/mL"}, {"measurement": "Whole blood IFNg release, Fold-change over medium only", "setting": "whole blood [2]; [11]", "result": 0.68}, {"measurement": "Whole blood IP-10 release, Concentration", "setting": "whole blood [3]; [12]", "result": 235, "unit": "pg/mL"}, {"measurement": "Whole blood IP-10 release, Fold-change over medium only", "setting": "whole blood [3]; [12]", "result": 0.89}, {"measurement": "Whole blood IP-10 release, Concentration", "setting": "whole blood [3]; [13]", "result": 325, "unit": "pg/mL"}, {"measurement": "Whole blood IP-10 release, Fold-change over medium only", "setting": "whole blood [3]; [13]", "result": 0.97}, {"measurement": "Whole blood IP-10 release, Concentration", "setting": "whole blood [3]; [14]", "result": 336, "unit": "pg/mL"}, {"measurement": "Whole blood IP-10 release, Fold-change over medium only", "setting": "whole blood [3]; [14]", "result": 1.26}, {"measurement": "Whole blood IP-10 release, Concentration", "setting": "whole blood [3]; [15]", "result": 1269, "unit": "pg/mL"}, {"measurement": "Whole blood IP-10 release, Fold-change over medium only", "setting": "whole blood [3]; [15]", "result": 4.06}, {"measurement": "Whole blood IP-10 release, Concentration", "setting": "whole blood [3]; [16]", "result": 3409, "unit": "pg/mL"}, {"measurement": "Whole blood IP-10 release, Fold-change over medium only", "setting": "whole blood [3]; [16]", "result": 12.30}, {"measurement": "Whole blood IP-10 release, Concentration", "setting": "whole blood [3]; [17]", "result": 10000, "unit": "pg/mL"}, {"measurement": "Whole blood IP-10 release, Fold-change over medium only", "setting": "whole blood [3]; [17]", "result": 49.76}, {"measurement": "Whole blood IP-10 release, Concentration", "setting": "whole blood [3]; [18]", "result": 713, "unit": "pg/mL"}, {"measurement": "Whole blood IP-10 release, Fold-change over medium only", "setting": "whole blood [3]; [18]", "result": 0.96}, {"measurement": "Whole blood IP-10 release, Concentration", "setting": "whole blood [3]; [19]", "result": 2549, "unit": "pg/mL"}, {"measurement": "Whole blood IP-10 release, Fold-change over medium only", "setting": "whole blood [3]; [19]", "result": 2.86}]}]}
